Experimental data from US6723364B1, “Fog treatment method using a liquid composition for treating fruits and vegetables and implementing device” (Xeda International, priority 1998, dated 2004).
In brackets after ≈: the same amount, converted by molar mass. Read-outs that look alike come from different tables or passages of the source.

Columns and labels:
Format in all cases: cell-based
Alternaria alternata [1] = test: Fungicidal activity in vitro: mycelial growth on Cristomalt agar; conditions: for Inhibition grades: MIC expressed on the scale of Table 2; for MIC: Alternaria alternata, read-out: MIC (content giving complete inhibition of mycelial growth)
Protocol: (§1) The Cristomalt medium used for the evaluations of the fungicidal activities comprises 0.1% of Cristomalt (malt extract) and 0.2% of agar.
(§2) This culture medium is, after sterilization, brought to 55° C. The terpene compound tested is then introduced in the pure form into the culture medium under warm conditions. Immediately after agitating, the medium, enriched with the terpene product, is poured into Petri dishes (diameter 9 cm, filled with 20 ml of medium). The agar-comprising medium solidifies on cooling. The Petri dishes are then inoculated with plugs, with a diameter of 6 mm, withdrawn from the edge of a culture of the tested fungus, which culture is obtained on Cristomalt medium.
(§3) Inoculation is carried out at 22° C.
(§4) The mycelial growth was determined periodically (5 to 15 days, according to the species of fungus).
(§5) The results are expressed in Table 3 below in terms of MIC, which is the content (in μg/ml) which makes it possible to obtain complete inhibition of mycelial growth.
(§6) In f act, each experiment was carried out several times, so that, for each terpene and for each species of fungus, a minimum value and a maximum value were obtained.

Botrytis cinerea [2] = test: as above; conditions: for Inhibition grades: MIC expressed on the scale of Table 2; for MIC: Botrytis cinerea, read-out: MIC (content giving complete inhibition of mycelial growth)
Protocol: as §1, §2, §3, §4, §5, §6

Fusarium oxysporum [3] = test: as above; conditions: for MIC: Fusarium oxysporum, read-out: MIC (content giving complete inhibition of mycelial growth); for Inhibition grades: OF, MIC expressed on the scale of Table 2
Protocol: as §1, §2, §3, §4, §5, §6

Geocrichum candidum = test: as above; conditions: for Inhibition grades: MIC expressed on the scale of Table 2; for MIC: read-out: MIC (content giving complete inhibition of mycelial growth)
Protocol: as §1, §2, §3, §4, §5, §6

Gliocladium roseum = test: as above; conditions: for MIC: Clonostachys rosea, read-out: MIC (content giving complete inhibition of mycelial growth); for Inhibition grades: MIC expressed on the scale of Table 2
Protocol: as §1, §2, §3, §4, §5, §6

Penicillium digitatum [4] = test: as above; conditions: for Inhibition grades: MIC expressed on the scale of Table 2; for MIC: Penicillium digitatum, read-out: MIC (content giving complete inhibition of mycelial growth)
Protocol: as §1, §2, §3, §4, §5, §6

Penicillium expansum [5] = test: as above; conditions: for Inhibition grades: MIC expressed on the scale of Table 2; for MIC: Penicillium expansum, read-out: MIC (content giving complete inhibition of mycelial growth)
Protocol: as §1, §2, §3, §4, §5, §6

[6] = tested on: Phlyctaena vagabonda (“Gloeosporium”); test: as above; conditions: for Inhibition grades: MIC expressed on the scale of Table 2; for MIC: read-out: MIC (content giving complete inhibition of mycelial growth)
Protocol: as §1, §2, §3, §4, §5, §6

Phytophtora parasitica [7] = test: as above; conditions: for Inhibition grades: MIC expressed on the scale of Table 2; for MIC: read-out: MIC (content giving complete inhibition of mycelial growth)
Protocol: as §1, §2, §3, §4, §5, §6

[8] = tested on: species of fungus (AA, BC, FO, GC, GR, PD, PE, PV, PhP); test: Fungicidal activity in vitro: total of inhibition grades over the nine species of fungus; conditions: sum of the grades over the nine fungi
Protocol: as §1, §2, §3, §4
The results obtained are analysed simply by using the assessment scale illustrated in Table 2:
The results obtained have been expressed in Table 3 using the scale in Table 2.

Alternaria alternata [9] = test: Germination of the spores in vitro; conditions: AA;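 note: ++ germination like control and 0 no spores germinated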
Protocol: (§7) The activity of eugenol and of isoeugenol on the germination of the spores was evaluated in vitro and compared with that of other terpenes.
(§8) The procedure of Example 4 is used to do this, except that the concentration of eugenol and of isoeugenol was set at x μg/ml in the culture media used and that 50 μl of a suspension of spores, adjusted to 100,000 spores/ml, are deposited in each Petri dish.
(§9) The same experiment was carried out starting with a terpene-free culture medium (control test).
(§10) The results were evaluated using the following assessment criteria:
(§11) +: considerable reduction in the level of spores germinated
(§12) The results obtained for 3 different concentrations of terpenes in the culture medium, namely 40 μg/ml, 80 μg/ml and 1280 μg/ml, are listed in Tables 4, 5 and 6.

Botrytis cinerea [10] = test: Germination of the spores in vitro; conditions: BC
Protocol: as §7, §8, §9, §10, §11, §12

Fusarium oxysporum [11] = test: Germination of the spores in vitro; conditions: FO;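 note: ++ germination like control and 0 no spores germinated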
Protocol: as §7, §8, §9, §10, §11, §12

Penicillium digitatum [12] = test: Germination of the spores in vitro; conditions: PD
Protocol: as §7, §8, §9, §10, §11, §12

Penicillium expansum [13] = test: Germination of the spores in vitro; conditions: PE;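 note: ++ germination like control and 0 no spores germinated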
Protocol: as §7, §8, §9, §10, §11, §12

[14] = tested on: Phlyctaena vagabonda (“Gloeosporium”); test: Germination of the spores in vitro; conditions: PV;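 note: ++ germination like control and 0 no spores germinated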
Protocol: as §7, §8, §9, §10, §11, §12

Phytophtora parasitica [15] = test: Germination of the spores in vitro; conditions: PhP
Protocol: as §7, §8, §9, §10, §11, §12

Erwinia carotovora = test: Bactericidal activity in vitro in LB agar medium; conditions: for MIC: Pectobacterium carotovorum, read-out: MIC (concentration needed to completely inhibit the growth of the bacteria)
Protocol: The bactericidal activity of eugenol and isoeugenol was evaluated in vitro and compared with that of other terpenes.
The culture medium used is the following LB medium:
Bactotryptone: 1% by weight
Yeast extract: 0.5% by weight
A suspension of bacteria at 10^6 CFU/ml was prepared in sterilized water from the LB medium. 200 μl of this bacterial suspension were added to 20 ml of presterilized LB culture medium brought to 55° C. The tested terpene is then added to the culture medium. After agitation, the medium is immediately divided among Petri dishes. The medium solidifies on cooling.
Incubation is carried out at 28° C. when the bacterium is Erwinia carotovora and at 37° C. when the bacterium is Escherichia coli.
The growth of mould in the culture medium is observed. The same experiment is carried out in the absence of terpene (control experiment).
The results are evaluated using the following assessment scale:
++: mould growth identical to the control
+: mould present with a marked reduction in growth with respect to the control
: complete absence of growth.
The results obtained for 3 different concentrations, namely 20, 80 and 320 μg/ml, in the case of the bacterium Erwinia carotovora are summarized in Table 7.
The protocol used is that described above.

[16] = Concentration 320 μg/ml, 28° C.

## CC=Cc1ccc(O)c(OC)c1 [ISOEUGENOL, isoeugenol]
Alternaria alternata [1]; AA
  Inhibition grades: 7 (20-40)
Alternaria alternata [1]; AA, min-max range of several experiments, 22° C.
  MIC: 20 to 40 µg/mL (≈ 122 to 244 µM)
Botrytis cinerea [2]; BC
  Inhibition grades: 7 (20-40)
Botrytis cinerea [2]; BC, min-max range of several experiments, 22° C.
  MIC: 20 to 40 µg/mL (≈ 122 to 244 µM)
Fusarium oxysporum [3]; FO, min-max range of several experiments, 22° C.
  MIC: 20 to 40 µg/mL (≈ 122 to 244 µM)
Fusarium oxysporum [3]
  Inhibition grades: 7 (20-40)
Geocrichum candidum; GC
  Inhibition grades: 8 (10-20)
Geocrichum candidum; GC, min-max range of several experiments, 22° C.
  MIC: 10 to 20 µg/mL (≈ 60.9 to 122 µM)
Gliocladium roseum; GR, min-max range of several experiments, 22° C.
  MIC: 20 to 40 µg/mL (≈ 122 to 244 µM)
Gliocladium roseum; GR
  Inhibition grades: 7 (20-40)
Penicillium digitatum [4]; PD
  Inhibition grades: 7 (20-40)
Penicillium digitatum [4]; PD, min-max range of several experiments, 22° C.
  MIC: 20 to 40 µg/mL (≈ 122 to 244 µM)
Penicillium expansum [5]; PE
  Inhibition grades: 7 (20-40)
Penicillium expansum [5]; PE, min-max range of several experiments, 22° C.
  MIC: 20 to 40 µg/mL (≈ 122 to 244 µM)
[6]; PV
  Inhibition grades: 7 (20-40)
[6]; PV, min-max range of several experiments, 22° C.
  MIC: 20 to 40 µg/mL (≈ 122 to 244 µM)
Phytophtora parasitica [7]; PhP
  Inhibition grades: 7 (20-40)
Phytophtora parasitica [7]; PhP, min-max range of several experiments, 22° C.
  MIC: 20 to 40 µg/mL (≈ 122 to 244 µM)
[8]
  Total of the degrees of inhibition: 64
Alternaria alternata [9]; x = 40 μg/ml
  germination of the spores: 0
Alternaria alternata [9]; x = 80 μg/ml
  germination of the spores: 0
Alternaria alternata [9]; x = 1280 μg/ml
  germination of the spores: 0
Botrytis cinerea [10]; x = 40 μg/ml
  germination of the spores: ++
Botrytis cinerea [10]; x = 80 μg/ml
  germination of the spores: 0
Botrytis cinerea [10]; x = 1280 μg/ml
  germination of the spores: 0
Fusarium oxysporum [11]; x = 40 μg/ml
  germination of the spores: 0
Fusarium oxysporum [11]; x = 80 μg/ml
  germination of the spores: 0
Fusarium oxysporum [11]; x = 1280 μg/ml
  germination of the spores: 0
Penicillium digitatum [12]; x = 40 μg/ml
  germination of the spores: 0
Penicillium digitatum [12]; x = 80 μg/ml
  germination of the spores: 0
Penicillium digitatum [12]; x = 1280 μg/ml
  germination of the spores: 0
Penicillium expansum [13]; x = 40 μg/ml
  germination of the spores: 0
Penicillium expansum [13]; x = 80 μg/ml
  germination of the spores: 0
Penicillium expansum [13]; x = 1280 μg/ml
  germination of the spores: 0
[14]; x = 40 μg/ml
  germination of the spores: 0
[14]; x = 80 μg/ml
  germination of the spores: 0
[14]; x = 1280 μg/ml
  germination of the spores: 0
Phytophtora parasitica [15]; x = 40 μg/ml
  germination of the spores: 0
Phytophtora parasitica [15]; x = 80 μg/ml
  germination of the spores: 0
Phytophtora parasitica [15]; x = 1280 μg/ml
  germination of the spores: 0
Erwinia carotovora; Concentration 20 μg/ml, 28° C.
  growth in the culture medium with respect to the control: +
Erwinia carotovora; Concentration 80 μg/ml, 28° C.
  growth in the culture medium with respect to the control: −
Erwinia carotovora; [16]
  growth in the culture medium with respect to the control: −
Erwinia carotovora; Erwinia sp., 28° C.
  MIC: 20 to 40 µg/mL (≈ 122 to 244 µM)

## C=CCc1ccc2c(c1)OCO2 [SAFROLE, safrole]
Alternaria alternata [1]; AA
  Inhibition grades: 5 (80-160)
Alternaria alternata [1]
  MIC: 80 to 160 µg/mL (≈ 493 to 987 µM)
Botrytis cinerea [2]; BC
  Inhibition grades: 5 (80-160)
Botrytis cinerea [2]
  MIC: 80 to 160 µg/mL (≈ 493 to 987 µM)
Fusarium oxysporum [3]
  MIC: 80 to 160 µg/mL (≈ 493 to 987 µM)
  Inhibition grades: 5 (80-160)
Geocrichum candidum; GC
  Inhibition grades: 4 (160-320)
Geocrichum candidum
  MIC: 160 to 230 µg/mL (≈ 987 to 1420 µM)
Gliocladium roseum
  MIC: 40 to 80 µg/mL (≈ 247 to 493 µM)
Gliocladium roseum; GR
  Inhibition grades: 6 (40-80)
Penicillium digitatum [4]; PD
  Inhibition grades: 4 (160-320)
Penicillium digitatum [4]
  MIC: 160 to 230 µg/mL (≈ 987 to 1420 µM)
Penicillium expansum [5]; PE
  Inhibition grades: 2 (640-1280)
Penicillium expansum [5]
  MIC: 640 to 1280 µg/mL (≈ 3950 to 7890 µM)
[6]; PV
  Inhibition grades: 5 (80-160)
[6]
  MIC: 80 to 160 µg/mL (≈ 493 to 987 µM)
Phytophtora parasitica [7]; PhP
  Inhibition grades: 6 (40-80)
Phytophtora parasitica [7]
  MIC: 40 to 80 µg/mL (≈ 247 to 493 µM)
[8]
  Total of the degrees of inhibition: 42
Alternaria alternata [9]; x = 40 μg/ml
  germination of the spores: ++
Alternaria alternata [9]; x = 80 μg/ml
  germination of the spores: +
Alternaria alternata [9]; x = 1280 μg/ml
  germination of the spores: 0
Botrytis cinerea [10]; x = 40 μg/ml
  germination of the spores: +
Botrytis cinerea [10]; x = 80 μg/ml
  germination of the spores: 0
Botrytis cinerea [10]; x = 1280 μg/ml
  germination of the spores: 0
Fusarium oxysporum [11]; x = 40 μg/ml
  germination of the spores: ++
Fusarium oxysporum [11]; x = 80 μg/ml
  germination of the spores: +
Fusarium oxysporum [11]; x = 1280 μg/ml
  germination of the spores: 0
Penicillium digitatum [12]; x = 40 μg/ml
  germination of the spores: +
Penicillium digitatum [12]; x = 80 μg/ml
  germination of the spores: +
Penicillium digitatum [12]; x = 1280 μg/ml
  germination of the spores: 0
Penicillium expansum [13]; x = 40 μg/ml
  germination of the spores: +
Penicillium expansum [13]; x = 80 μg/ml
  germination of the spores: +
Penicillium expansum [13]; x = 1280 μg/ml
  germination of the spores: +
[14]; x = 40 μg/ml
  germination of the spores: +
[14]; x = 80 μg/ml
  germination of the spores: +
[14]; x = 1280 μg/ml
  germination of the spores: 0
Phytophtora parasitica [15]; x = 40 μg/ml
  germination of the spores: 0
Phytophtora parasitica [15]; x = 80 μg/ml
  germination of the spores: 0
Phytophtora parasitica [15]; x = 1280 μg/ml
  germination of the spores: 0
Erwinia carotovora; Concentration 20 μg/ml, 28° C.
  growth in the culture medium with respect to the control: ++
Erwinia carotovora; Concentration 80 μg/ml, 28° C.
  growth in the culture medium with respect to the control: ++
Erwinia carotovora; [16]
  growth in the culture medium with respect to the control: +
Erwinia carotovora
  MIC: 320 to 640 µg/mL (≈ 1970 to 3950 µM)
